Values joined by “and” are separate entries in the source; they are usually repeats but may differ in a detail not shown here. Equal entries are not always repeated.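 These data come from cells grown in 96-well plates and exposed to compound for 48 hours at five concentrations. The concentration for 50% growth inhibition is given as GI50. TGI: concentration producing complete growth inhibition.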
Experiments:
Experiment in all cases: NCI anticancer screen, dose series, 48 h
[1] = tested on: CCRF-CEM leukemia
[2] = tested on: K-562 leukemia
[3] = tested on: SNB-75 CNS
[4] = tested on: UACC-62 melanoma
[5] = tested on: SN12C renal
[6] = tested on: SF-539 CNS
[7] = tested on: TK-10 renal
[8] = tested on: MDA-MB-231 breast
[9] = tested on: NCI-H460 lung
[10] = tested on: SW-620 colon

| Compound | GI50 [1] | TGI [1] [µM] | GI50 [2] | TGI [2] | GI50 [3] | TGI [3] | GI50 [4] | TGI [4] | GI50 [5] | TGI [5] | GI50 [6] | TGI [6] | GI50 [7] | TGI [7] | GI50 [8] | TGI [8] | GI50 [9] | TGI [9] | GI50 [10] | TGI [10] |
| --- | --- | --- | --- | --- | --- | --- | --- | --- | --- | --- | --- | --- | --- | --- | --- | --- | --- | --- | --- | --- |
| O=C(Nc1ccncc1)C(=O)c1cn(S(=O)(=O)c2ccccc2F)c2ccccc12 | 4.35 µM | > 100 | 1.37 µM | > 100 µM | 1.65 µM | 18 µM | 0.708 µM | > 36.4 µM | 2.65 µM | > 90.6 µM | 1.19 µM | 7.88 µM | 9.71 µM | > 49.3 µM | 3.97 µM | 64.9 µM | 6.75 µM | > 100 µM | 1.44 µM | > 100 µM |
| Nc1ncc(-c2ccc(C(F)(F)F)cc2)c(NC2CCCCCC2)n1 | 15.4 µM | 52.8 | 21 µM | > 100 µM | 43.4 µM | > 100 µM | 20.4 µM | > 100 µM | 29.4 µM | > 100 µM | 52.5 µM | > 100 µM | 54.5 µM | > 100 µM | 21.3 µM | 76.9 µM | 42.7 µM | > 100 µM | 39.3 µM | > 100 µM |
| CCN(CC)CCCC(C)Nc1cnc(C(=O)Nc2cc(F)cc3cccnc23)cn1 (stereo unspecified) | 2.55 µM and 0.478 µM | 10.6 | 1.95 µM and 0.46 µM | 4.97 µM and > 32.5 µM | 4.49 µM and 1.45 µM | 20.1 µM and 2.79 µM | 2.28 µM and 1.27 µM | 5.5 µM and 2.69 µM | 6.4 µM and 1.23 µM | 19.3 µM and 2.54 µM | 10.3 µM and 1.52 µM | 22.2 µM and 2.89 µM | 10.4 µM and 1.54 µM | 22.4 µM and 3.12 µM | 3.42 µM and 0.568 µM | 12.8 µM and 2.02 µM | 4.64 µM and 2.06 µM | 16.6 µM and 4.22 µM | 4.03 µM and 0.814 µM | 15 µM and 2.62 µM |
| c1cncc(CNc2ccccc2-c2nnc(Nc3ccc4c(c3)OCCO4)o2)c1 | 0.126 µM | 51.4 | 0.0432 µM | > 100 µM | 0.0527 µM | > 100 µM | 0.0522 µM | > 100 µM | 0.482 µM | > 100 µM | 0.115 µM | > 100 µM | 17 µM | > 100 µM | 0.644 µM | > 100 µM | 0.148 µM | > 32.5 µM | 0.0576 µM | > 100 µM |
| CCS(=O)(=O)c1ccc(OC)c(Nc2nccc(N(C)c3ccc4c(C)[nH]nc4c3)n2)c1 | 8.15 µM | > 25 | 2.79 µM | 16.8 µM | 2.94 µM | 8.38 µM | 6.79 µM | 24.5 µM | 5.23 µM | > 25 µM | 4.17 µM | 9.86 µM | 5.15 µM | 14.5 µM | 3.66 µM | 9.45 µM | 8.67 µM | > 25 µM | 7.85 µM | > 25 µM |
| COc1cc(-c2cc(-c3nc4ccccc4[nH]3)[nH]n2)cc(OC)c1OC | 2.12 µM | 9.96 | 3.08 µM | > 100 µM | 2.83 µM | 12.8 µM | 1.64 µM | 4.66 µM | 3.91 µM | 20.4 µM | 5.11 µM | 18.9 µM | 4.07 µM | 22.8 µM | 3.22 µM | 15.8 µM | 3.64 µM | 21.5 µM | 7.73 µM | 30.3 µM |
| CCOc1cc2ncc(C#N)c(Nc3ccc(F)c(Cl)c3)c2cc1NC(=O)/C=C/CN(C)C | 1.13 µM | > 7.16 | 0.36 µM | > 4.21 µM | 0.228 µM | > 3.71 µM | 0.449 µM | > 5.09 µM | 0.173 µM | > 6.03 µM | 0.826 µM | 2.31 µM | 0.00445 µM | 0.506 µM | 0.882 µM | 5.07 µM | 0.655 µM | 4.26 µM | 0.485 µM | 3.23 µM |
| Cn1c2ccc([N+](=O)[O-])cc2c(=O)c2c(O)cc(O)cc21 |  | > 100 |  | > 100 µM |  | 34.7 µM |  | > 100 µM |  | > 100 µM |  | 55.2 µM |  | > 100 µM |  | > 100 µM |  | > 100 µM |  | > 100 µM |
| Cc1nn2c(/C=C3/C(=O)Nc4ccc(Cl)cc43)c(-c3ccccc3)nc2s1 | 4.06 µM | 23.7 | 3.85 µM | 20.6 µM | 1.19 µM | 2.69 µM | 3.8 µM | 18.5 µM | 3.95 µM | 18.4 µM | 2.25 µM | 6.54 µM | 3.3 µM | 8.79 µM | 2.29 µM | 8.41 µM | 3.18 µM | 11.7 µM | 4.51 µM | 19.7 µM |
| NC1CCC[C@@H](O)[C@H]1O (stereo partly specified) |  | > 100 |  | > 100 µM |  | > 100 µM |  | > 100 µM |  | > 100 µM |  | > 100 µM | > 100 µM | > 100 µM |  | > 100 µM |  | > 100 µM |  | > 100 µM |
| Clc1cc(Cl)cc(N2N=C(c3cccc(Nc4ccncc4)c3)CC2c2ccc(Br)cc2)c1 (stereo unspecified) | 3.02 µM | 31.2 | 2.26 µM | 5.69 µM | 1.42 µM | 2.98 µM | 1.68 µM | 3.13 µM | 1.67 µM | 3.11 µM | 1.7 µM | 3.12 µM | 1.86 µM | 3.6 µM | 1.51 µM | 2.91 µM | 1.81 µM | 3.51 µM | 1.61 µM | 3.04 µM |
| O=C(CNC(=O)c1cccc2ccccc12)Nc1ccccc1Oc1ccccc1 | 0.345 µM | > 10 | 0.0704 µM | > 10 µM | 0.231 µM | > 10 µM | 0.177 µM | > 10 µM | 0.583 µM | > 10 µM | 0.237 µM | 0.695 µM | 0.619 µM | > 10 µM | 0.982 µM | > 10 µM | 0.333 µM | > 10 µM | 0.283 µM | > 10 µM |
| Cc1nc(NC(=S)Nc2ccc(F)cc2)sc1C(=O)NNC(=S)Nc1ccc(F)cc1 | 2.56 µM | 15.7 | 3.91 µM | > 100 µM | 15.3 µM | 54.7 µM | 3.01 µM | 18.9 µM | 10.2 µM | 32.1 µM | 13 µM | 26.2 µM | 6.93 µM | 48.1 µM | 10.4 µM | 25.1 µM | 3.85 µM | 16.2 µM | 10.6 µM | 25.2 µM |
| C=C1C(=O)O[C@@H]2C[C@@H](C)[C@@H]3[C@@H](OC4OC(COC(C)=O)C(O)C(O)C4O)CC(=O)[C@@]3(C)C[C@H]12 (stereo partly specified) |  | 16.1 |  | 3.78 µM |  | 15.3 µM |  | 2.98 µM |  | 3.51 µM |  | 6.27 µM |  | 3.36 µM |  | 8.92 µM |  | 28.7 µM |  | 1.61 µM |
| COc1ccc(C(=O)c2cc(OC)c(OC)c(OC)c2)cc1O | 0.0308 µM | > 100 | < 0.01 µM | > 100 µM | < 0.01 µM | > 100 µM | 1.1 µM | > 100 µM | 0.0668 µM | > 100 µM | 0.0112 µM | 0.0557 µM | > 61.5 µM | > 100 µM | 0.0559 µM | > 100 µM | 0.0373 µM | > 100 µM | < 0.01 µM | > 100 µM |
